Experimental data: patent US11970450B2, “Multi-component crystals of an orally available HIF prolyl hydroxylase inhibitor” (Sandoz AG, priority 2018, dated 2024)
Where two headings read alike, the source gives them in different places.

Key:
[1] = Thermal stability by differential scanning calorimetry (DSC); assay type: physicochemical; settings: for Thermal stability: Table 7 summary, temperature stress, DSC and TGA; for Thermal stability / DSC: thermal events / phase transformations before melting: 25 to 250° C. at 10 K/min; for DSC: thermal events / phase transformations before melting: nitrogen purge; for Physically stable toward temperature stress: no thermal events in DSC until start to melt at: DSC 10 K/min
Method: DSC was performed on a Mettler Polymer DSC R instrument. […] Nitrogen (purge rate 50 mL/min) was used as purge gas.

[2] = Thermogravimetric analysis (TGA) mass loss on heating; assay type: physicochemical; settings: 10 K/min
Method: TGA was performed on a Mettler TGA/DSC 1 instrument. The samples (9.53 mg Form 1 and 8.16 mg Form 2, 8.12 mg 1,4-dioxane solvate) were heated in a 100 microliter aluminum pan closed with an aluminum lid. The lid was automatically pierced at the beginning of the measurement. The samples were heated from 25 to 250° C. at a rate of 10 K/min. Nitrogen (purge rate 50 mL/min) was used as purge gas.
Also, no significant mass loss is visible in the TGA curves of Form 1 and Form 2 until they melt.

[3] = cited from earlier work
[4] = up to a temperature of about 170° C.

C1COCCO1.O=C(O)CNC(=O)c1ncc(-c2cccc(Cl)c2)cc1O [Vadadustat 1,4-dioxane solvate, reference compound]
DSC onset of first broad endothermic peak (release of 1,4-dioxane from the crystal structure) ([1]; 10 K/min): about 78 °C | Thermal stability [1]: desolvation below 100 °C | Temperature at which TGA mass loss starts [2]: about 40 °C | TGA mass loss [2, 4]: about 19 weight %

O=C(O)CNC(=O)c1ncc(-c2cccc(Cl)c2)cc1O [Vadadustat L-proline form 1, vadadustat L-proline]
DSC: thermal events / phase transformations before melting ([1]; listed as vadadustat L-proline form 1): undergoes no desolvation or phase transformations but is stable until it melts | Physically stable toward temperature stress: no thermal events in DSC until start to melt at ([1]; listed as Form 1): about 170 °C | Thermal stability [1]: physically stable until melting at | TGA mass loss [2, 4]: about 0.20 weight %

O=C(O)CNC(=O)c1ncc(-c2cccc(Cl)c2)cc1O [Vadadustat L-proline form 2, vadadustat L-proline]
DSC: thermal events / phase transformations before melting ([1]; listed as vadadustat L-proline form 2): undergoes no phase transformations but is stable until it melts | Physically stable toward temperature stress: no thermal events in DSC until start to melt at ([1]; listed as Form 2): ~178 °C | TGA mass loss ([2]; up to a temperature of about 180° C.): about 0.15 weight %

O=C(O)CNC(=O)c1ncc(-c2cccc(Cl)c2)cc1O [Vadadustat hydrate]
Thermal stability ([3]; Table 7 summary, hydrate of WO 2018/108101 A1, temperature stress): dehydration below 100 °C | Physical stability upon temperature stress ([3]; background statement on hydrate CS2 of WO 2018/108101 A1): physically unstable upon temperature stress
